Test results taken from paper PMC7806782, “Tethering-induced destabilization and ATP-binding for tandem RRM domains of ALS-causing TDP-43 and hnRNPA1” (Scientific Reports, 2021).

Columns and labels:
Assay in all cases: 1H-15N HSQC NMR titration, one-site fit of chemical shift differences
Format in all cases: binding
[1] = biological target: T1, isolated hnRNPA1 RRM2 (94–184) (Homo sapiens, UniProt P09651)
T1 construct: printed as 90-residue

[2] = biological target: T2, isolated TDP-43 RRM2 (191–269) (Homo sapiens, UniProt Q13148)
T2 construct: gene TARDBP
T2 sequence (Q13148 191-269): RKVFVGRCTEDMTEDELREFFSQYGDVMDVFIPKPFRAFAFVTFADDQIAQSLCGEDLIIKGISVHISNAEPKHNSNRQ
Excerpt: 1H-15N HSQC NMR titration, one-site fit of chemical shift differences on isolated TDP-43 RRM2 (191–269) | isolated RRM2 is also able to bind ATP to induce large shifts

[3] = biological target: T3, tethered hnRNPA1 RRM1–RRM2 (5–184) (Homo sapiens, UniProt P09651)
T3 construct: ATP site in RRM2
T3 sequence (P09651 5-184): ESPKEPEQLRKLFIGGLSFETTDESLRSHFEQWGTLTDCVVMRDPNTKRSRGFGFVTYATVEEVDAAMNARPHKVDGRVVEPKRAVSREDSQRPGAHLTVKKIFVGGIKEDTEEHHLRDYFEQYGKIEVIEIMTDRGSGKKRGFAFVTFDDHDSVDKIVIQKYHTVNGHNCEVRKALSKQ

T1 sequence (P09651 94-184): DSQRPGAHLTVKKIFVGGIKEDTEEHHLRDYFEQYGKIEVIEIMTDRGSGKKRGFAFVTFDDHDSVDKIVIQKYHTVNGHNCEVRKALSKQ

Kd [1]: 7.7 mM
Kd [2]: 16.7 ± 0.9 mM
Kd [3]: 4.9 mM
SMILES: Nc1ncnc2c1ncn2[C@@H]1O[C@H](COP(=O)(O)OP(=O)(O)OP(=O)(O)O)[C@@H](O)[C@H]1O [ATP]
